Results on five compounds are retold here after doi:10.1101/2024.02.28.577416v1 (biorxiv, 2024).

In assay [1] the target is T1, SCO4122 (Streptomyces coelicolor, UniProt Q9KYE8).
T1 sequence (Q9KYE8 1-182): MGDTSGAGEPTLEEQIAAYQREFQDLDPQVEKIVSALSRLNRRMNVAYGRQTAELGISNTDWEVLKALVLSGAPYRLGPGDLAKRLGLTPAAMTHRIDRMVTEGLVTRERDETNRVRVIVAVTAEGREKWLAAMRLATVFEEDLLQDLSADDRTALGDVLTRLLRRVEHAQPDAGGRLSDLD
Briefly: SPR. The assay is classed as binding.

Assay [2] concerns the target T2, SCO4122 (Streptomyces coelicolor, UniProt Q9KYE8, M93L).
T2 sequence (Q9KYE8 1-182 M93L): T1 sequence (Q9KYE8 1-182) with M93L
Description: SPR. The format is binding.

Each structure is given as a SMILES string. Numbering of substitutions follows the chain as printed.

As a reminder, the Kd is the free concentration of one partner at which half of the binding sites on the other are occupied at equilibrium, for simple one-to-one binding. A low value points to tighter binding. In turn, `CC[n+]1c(-c2ccccc2)c2cc(N)ccc2c2ccc(N)cc21` [EtBr] displayed a Kd at SCO4122 [1] of 1.39 µM.
For `O=C(N[C@H](CO)[C@H](O)c1ccc([N+](=O)[O-])cc1)C(Cl)Cl` [chloramphenicol], binding at SCO4122 [1] was put at a Kd of 2000 µM.
Still for that read-out and setting: in the case of `O=C(O)c1cn(C2CC2)c2cc(N3CCNCC3)c(F)cc2c1=O` [ciprofloxacin] it was 31 µM.
As to `[H]/N=C(/N)N[C@H]1[C@H](O)[C@@H](O)[C@H](O[C@@H]2O[C@@H](C)[C@](O)(C=O)[C@H]2O[C@@H]2O[C@@H](CO)[C@H](O)[C@@H](O)[C@@H]2NC)[C@@H](N/C(N)=N\[H])[C@@H]1O` [streptomycin], the figures for the Kd at SCO4122 [2] and at SCO4122 [1] were 53.9 µM and 0.73 µM, respectively.
On the same counts, the results for `CN(C)[C@@H]1C(=O)C(C(N)=O)=C(O)[C@@]2(O)C(=O)C3=C(O)c4c(O)cccc4[C@@](C)(O)[C@H]3C[C@@H]12` [tetracycline] are 2.43 µM and 2.68 µM.
